Data set [1] has as its system SD rats. Particulars: rat, in vivo; for MLD: iv.
For data set [2], the system named is SD rats. Description: animal or person. Particulars: iv; for Minimal effective analgesic dose / Minimal effective anesthetic dose / Onset time / Righting feflex duration / Sedation Duration: rat, in vivo; for minimal effective dose: Rattus norvegicus. It counts as in vivo.
The mark [3] stands for this setting: read-out: Minimal effective analgesic dose.
The mark [4] stands for this setting: read-out: Minimal effective anesthetic dose.

Read-outs that look alike come from different tables or passages of the source.
Wherever Onset time is given: test concentration or dose not given here.
Wherever Righting feflex duration is given: test concentration or dose not given here.
Wherever Sedation Duration is given: test concentration or dose not given here.

Turning to `CC(C)OC(=O)CCC1N=C(c2ccccn2)c2cc3nc(C(F)(F)F)sc3cc2N(C)C1=O` (stereo not drawn) [Compound 181], in the data set on SD rats [1], the TI is >1.0 and the MLD is recorded as >40 mg/kg. In addition, in the data set with SD rats [2], the “Minimal effective analgesic dose” value stood at 40 mg/kg, the “Minimal effective anesthetic dose” value was 40.0 mg/kg, the Onset time was 0.8 min and the Righting feflex duration was 7.8 min. Moreover, in the data set with SD rats [2], the “Sedation Duration” value was found to be 53.0 min.
As for `CCC(=O)OCCC1N=C(c2ccccn2)c2cc(Br)ccc2-n2c(C)cnc21` (stereo not drawn) [Compound 147], in the data set with SD rats [1], the TI was 6.0 and the MLD was 15 mg/kg. In addition, in the data set on SD rats [2], the “Minimal effective anesthetic dose” value was found to be 2.5 mg/kg, the Onset time is 0.2 to 0.5 min and the “Sedation Duration” value fell in the range of 27.0 to 48.7 min.
The minimal effective dose is the lowest level tested that produced the effect sought. In the data set with SD rats [1] (SD), `CC(C)C(C)OC(=O)CN1N=C(c2ccccn2)c2cc(Br)ccc2N(C)C1=O` (stereo not drawn) [Compound 249] came in with a TI of 2 and an MLD of 20 mg/kg. Further, the minimal effective dose with SD rats [2] (setting [3]) turned out to be 15 mg/kg. In addition, the minimal effective dose in the data set with SD rats [2] (setting [4]) was 10 mg/kg. In the data set on SD rats [2], the Onset time lay within 0.50 to 0.62 min, the Righting feflex duration lay within 6.55 to 13.37 min and the “Sedation Duration” value is 23.30 to 42.37 min.
`Cc1cnc2n1-c1ccc(Br)cc1C(c1ccccn1)=NN2COC(=O)C(C)C` [Compound 318]: in the data set on SD rats [1] (SD), the TI is recorded as >2 and the MLD was >10 mg/kg. Further, the minimal effective dose with SD rats [2] (setting [4]) came to 5 mg/kg. In the data set on SD rats [2], the Onset time lay in the range of 0.52 to 0.63 min, the Righting feflex duration was in the range of 0.58 to 10.53 min and the “Sedation Duration” value was 24.95 to 35.65 min.
In the data set with SD rats [1] (SD), `CCC(CC)OC(=O)CN1N=C(c2ccccn2)c2cc(Br)ccc2N(C)C1=O` [Compound 247] showed a TI of 1.5 and an MLD of 30 mg/kg. In the data set with SD rats [2] (setting [3]), the minimal effective dose was determined as 20 mg/kg. Besides, in the data set with SD rats [2] (setting [4]), the minimal effective dose was 20 mg/kg. In the data set with SD rats [2], the Onset time was 0.28 min, the Righting feflex duration is listed as 30.15 min and the “Sedation Duration” value was 88.25 min.
As for `CC(C)Oc1nonc1CCN1N=C(c2ccccn2)c2cc(Br)ccc2N(C)C1=O` [Compound 275], in the data set on SD rats [1] (SD), the TI is >2 and the MLD is >60 mg/kg. Moreover, in the data set on SD rats [2] (setting [4]), the minimal effective dose was 30 mg/kg. In the data set with SD rats [2], this compound gave an Onset time of 0.93 to 4.90 min and a Righting feflex duration of 6.37 to 17.25 min.
In the data set on SD rats [1] (SD), `CC[C@@H](C)OC(=O)CN1N=C(c2ccccn2)c2cc(Br)ccc2N(C)C1=O` [Compound 243] had a TI of 6 and an MLD of 30 mg/kg. For the same compound, in the data set on SD rats [2] (setting [4]), the minimal effective dose was 5 mg/kg. In the data set with SD rats [2], the Onset time lay within 0.22 to 0.67 min, the Righting feflex duration lay within 0.65 to 19.85 min and the “Sedation Duration” value lay in the range of 21.98 to 55.45 min.
In the data set on SD rats [1] (SD), `Cc1cnc2n1-c1ccc(Br)cc1C(c1ccccn1)=NN2CCOC(=O)N(C)C` [Compound 317] displayed a TI of 4 and an MLD of 20 mg/kg. In the data set with SD rats [2] (setting [3]), the minimal effective dose amounted to 10 mg/kg. For the same compound, in the data set with SD rats [2] (setting [4]), the minimal effective dose turned out to be 5 mg/kg. Moreover, in the data set with SD rats [2], the Onset time is 0.22 to 0.38 min, the Righting feflex duration lay within 4.08 to 25.97 min and the “Sedation Duration” value lay in the range of 18.73 to 70.28 min.
In the data set on SD rats [1] (SD), `CC(C)OC(=O)OCN1N=C(c2ccccn2)c2cc(Br)ccc2N(C)C1=O` [Compound 289] registered a TI of 8.3 and an MLD of 41.7 mg/kg. Besides, in the data set on SD rats [2] (setting [3]), the minimal effective dose was 20 mg/kg. In addition, the minimal effective dose in the data set on SD rats [2] (setting [4]) worked out at 5 mg/kg. In the data set on SD rats [2], the Onset time was 0.15 to 0.68 min, the Righting feflex duration fell in the range of 0.53 to 32.23 min and the “Sedation Duration” value lay within 20.27 to 311.87 min.
In the data set on SD rats [1] (SD), `CC[C@@H](C)OC(=O)CN1N=C(c2ccccn2)c2cc(Br)ccc2-n2c(C)cnc21` [Compound 309] yielded a TI of 6 and an MLD of 15 mg/kg. In addition, the minimal effective dose in the data set on SD rats [2] (setting [3]) was found to be 12.5 mg/kg. In addition, the minimal effective dose with SD rats [2] (setting [4]) worked out at 2.5 mg/kg. In the data set with SD rats [2], the Onset time was in the range of 0.35 to 0.55 min, the Righting feflex duration is 2.38 to 18.82 min and the “Sedation Duration” value lay within 27.68 to 46.83 min.
Take `CN1C(=O)N(COC(=O)CCCl)N=C(c2ccccn2)c2cc(Br)ccc21` [Compound 290]: in the data set with SD rats [1] (SD), the TI worked out at 1.3 and the MLD is 20 mg/kg. For the same compound, the minimal effective dose with SD rats [2] (setting [3]) turned out to be 15 mg/kg. Moreover, in the data set with SD rats [2] (setting [4]), the minimal effective dose is 15 mg/kg. Further, in the data set with SD rats [2], the Onset time is recorded as 0.45 min, the Righting feflex duration is 6.63 min and the “Sedation Duration” value was determined as 18.08 min.
In the data set on SD rats [1], `CC(C)OC(=O)OC1N=C(c2ccccn2)c2cc(Br)ccc2N(C)C1=O` (stereo not drawn) [Compound 166] gave a TI of 2.0 and an MLD of 38.9 mg/kg. Further, in the data set on SD rats [2], the “Minimal effective analgesic dose” value stood at 20 mg/kg, the “Minimal effective anesthetic dose” value amounted to 20.0 mg/kg, the Onset time is 0.4 min and the Righting feflex duration worked out at 20.7 min. Besides, the “Sedation Duration” value in the data set on SD rats [2] stood at 64.0 min.
With `CC(C)C(=O)CN1N=C(c2ccccn2)c2cc(Br)ccc2N(C)C1=O` [Compound 279], in the data set on SD rats [1] (SD), the TI came to 1.3. The MLD in the data set with SD rats [1] is 20 mg/kg. Moreover, the minimal effective dose in the data set on SD rats [2] (setting [4]) was determined as 15 mg/kg. Besides, in the data set on SD rats [2], the Onset time worked out at 0.35 min, the Righting feflex duration came to 3.77 min and the “Sedation Duration” value was 62.22 min.
Consider `Cc1cnc2n1-c1ccc(Br)cc1C(c1ccccn1)=NN2COC(=O)N(C)C` [Compound 320], for which, in the data set with SD rats [1] (SD), the TI was 2 and the MLD is on record as 30 mg/kg. Besides, the minimal effective dose with SD rats [2] (setting [3]) came out at 15 mg/kg. Moreover, in the data set with SD rats [2] (setting [4]), the minimal effective dose was determined as 15 mg/kg. Moreover, in the data set on SD rats [2], the Onset time is 0.65 to 0.92 min and the Righting feflex duration fell in the range of 2.03 to 5.98 min.
`CCC(C)OC(=O)CN1N=C(c2ccccn2)c2cc(Br)ccc2N(C)C1=O` (stereo not drawn) [Compound 241]: in the data set on SD rats [1] (SD), the TI turned out to be 4 and the MLD was 30 mg/kg. In addition, in the data set on SD rats [2] (setting [4]), the minimal effective dose is 7.5 mg/kg. In addition, in the data set with SD rats [2], the Onset time lay within 0.43 to 0.90 min, the Righting feflex duration was in the range of 3.47 to 30.13 min and the “Sedation Duration” value is 18.10 to 73.95 min.
In the data set with SD rats [1], `Cc1cnc2n1-c1ccc(Br)cc1C(c1ccccn1)=NC2CCOC(=O)N(C)C` (stereo not drawn) [Compound 156] had a TI of 11.1 and an MLD of 20 mg/kg. Besides, in the data set on SD rats [2], the “Minimal effective anesthetic dose” value came out at 1.8 mg/kg, the Onset time lay within 0.2 to 0.4 min, the Righting feflex duration fell in the range of 1.7 to 31.9 min and the “Sedation Duration” value was 9.3 to 91.5 min.
For the compound `Cc1cnc2n1-c1ccc(Br)cc1C(c1ccccn1)=NC2CCC(=O)OC1COC1` (stereo not drawn) [Compound 4], in the data set with SD rats [1], the TI is reported as >1.5 and the MLD is on record as >22.5 mg/kg. Further, in the data set on SD rats [2], the “Minimal effective anesthetic dose” value turned out to be 15.0 mg/kg, the Onset time was 0.2 to 0.4 min, the Righting feflex duration was in the range of 1.1 to 3.5 min and the “Sedation Duration” value was 4.2 to 10.8 min.
`CN1C(=O)N(CCOC(=O)CCl)N=C(c2ccccn2)c2cc(Br)ccc21` [Compound 300]: in the data set on SD rats [1] (SD), the TI is listed as >1 and the MLD is given as >40 mg/kg. Also, in the data set with SD rats [2] (setting [4]), the minimal effective dose is 40 mg/kg. In the data set with SD rats [2], the Onset time is 0.25 min, the Righting feflex duration worked out at 4.67 min and the “Sedation Duration” value stood at 76.20 min.
